Source: US20120016009A1, “Optimized Methods For Delivery Of DSRNA Targeting The PCSK9 Gene” (priority 2008, published 2012)
In the oligonucleotide strings, read from the 5' end, every base follows the letter of its sugar. An asterisk marks phosphorothioate; unmarked linkages are phosphodiester. Other units and linkages are bracketed, terminal groups are in braces. A string of capitals states the bases alone. d = 2'-deoxy (DNA); m = 2'-O-methyl; r = 2'-OH (RNA)

The substances below were run on PCSK9 mRNA (assay: PCSK9 siRNA screening in HepG2 cells (lipofectamine 2000 transfection, PCSK9 mRNA by Quantigene, normalized to GAP-DH)). Conditions: not given.
Assay type: cell-based, human
How it was run: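 PCSK9 silencing was assessed in HepG2 cells by lipofectamine 2000 siRNA transfection in 96-well plates. Twenty-four hours later, lysates were analyzed with the Quantigene Explore Kit, with PCSK9 signal normalized to GAP-DH. Eight datapoints were collected per siRNA, and remaining transcript was expressed as a percentage of cells treated with an unrelated control siRNA duplex.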

In the case of “AD-9731: PCSK9 siRNA (sense mUrGrGmUrGrArArGrAmUrGrArGmUrGrGmCrGrAdT*dT; antisense rUrCrGrCmCrArCrUmCrArUrCrUrUmCrArCmCrAdT*dT)”, the IC50 is reported as 0.32 nM.

Same assay, conditions: 3 nM siRNA

Compared with “AD-9721: PCSK9 siRNA (sense mCmUrGrArGrGrAmCmCrArGmCrGrGrGmUrAmCmUdT*dT; antisense rArGmUrArCrCrCrGrCrUrGrGrUrCrCrUmCrArGdT*dT)”, “AD-9731: PCSK9 siRNA (sense mUrGrGmUrGrArArGrAmUrGrArGmUrGrGmCrGrAdT*dT; antisense rUrCrGrCmCrArCrUmCrArUrCrUrUmCrArCmCrAdT*dT)” is lower in “Mean percent remaining mRNA transcript at siRNA concentration/in cell type 3 nM/HepG2” value: 70% for the first, 31% for the second.

In the case of “AD-9733: PCSK9 siRNA (sense rGrGrArGmCmUrGrGmUrGmCmUrArGmCmCmUmUrGdT*dT; antisense mCrArArGrGrCmUrArGmCrArCmCrArGrCrUrCrCdT*dT)”, the “Mean percent remaining mRNA transcript at siRNA concentration/in cell type 3 nM/HepG2” value is reported as 73%.

Same assay, conditions: 30 nM siRNA

Going from “AD-9711: PCSK9 siRNA (sense mCrGrGmCrArAmCmUmUmCmCrGrGrGrAmCrGrAmUdT*dT; antisense rArUrCrGrUrCrCrCrGrGrArArGrUrUrGrCrCrGdT*dT)” to “AD-9712: PCSK9 siRNA (sense rGrAmCrAmUmCrAmUmUrGrGmUrGmCmCmUmCmCrAdT*dT; antisense rUrGrGrArGrGmCrArCmCrArArUrGrArUrGrUrCdT*dT)”, the “Mean percent remaining mRNA transcript at siRNA concentration/in cell type 30 nM/HepG2” value falls from 122% to 107%.

First: AD-9714: PCSK9 siRNA (sense rGrGmUmCrAmCmCrGmCmUrGmCmCrGrGmCrArAmCdT*dT; antisense rGrUrUrGrCrCrGrGmCrArGrCrGrGrUrGrArCrCdT*dT)
Second: AD-9715: PCSK9 siRNA (sense mCrAmCmCrGmCmUrGmCmCrGrGmCrArAmCmUmUmCdT*dT; antisense rGrArArGrUrUrGrCrCrGrGmCrArGrCrGrGrUrGdT*dT)
The “Mean percent remaining mRNA transcript at siRNA concentration/in cell type 30 nM/HepG2” value of the first is lower: 106% for the first, 113% for the second.

Compared with “AD-9716: PCSK9 siRNA (sense rAmCmCrArAmCmUmUmUrGrGmCmCrGmCmUrGmUrGdT*dT; antisense mCrAmCrArGrCrGrGrCmCrArArArGrUrUrGrGrUdT*dT)”, “AD-9717: PCSK9 siRNA (sense rAmCmUrGmUmCmCmCmUmCmCmUmUrGrArGmCrAmCdT*dT; antisense rGrUrGrCrUmCrArArGrGrArGrGrGrAmCrArGrUdT*dT)” is lower in “Mean percent remaining mRNA transcript at siRNA concentration/in cell type 30 nM/HepG2” value: 114% for the first, 105% for the second.

Going from “AD-9718: PCSK9 siRNA (sense mCmCmUrArGrAmCrAmCmCrArGmCrAmUrAmCrArGdT*dT; antisense rCrUrGmUrArUrGrCrUrGrGrUrGrUrCmUrArGrGdT*dT)” to “AD-9719: PCSK9 siRNA (sense mCrArGrGrGmUmCrAmUrGrGmUmCrAmCmCrGrAmCdT*dT; antisense rGrUrCrGrGrUrGrArCmCrArUrGrArCrCrCrUrGdT*dT)”, the “Mean percent remaining mRNA transcript at siRNA concentration/in cell type 30 nM/HepG2” value rises from 78% to 115%.

First: AD-9720: PCSK9 siRNA (sense rGmCmUrGmCmCrGrGmCrArAmCmUmUmCmCrGrGrGdT*dT; antisense rCrCrCrGrGrArArGrUrUrGrCrCrGrGmCrArGrCdT*dT)
Second: AD-9721: PCSK9 siRNA (sense mCmUrGrArGrGrAmCmCrArGmCrGrGrGmUrAmCmUdT*dT; antisense rArGmUrArCrCrCrGrCrUrGrGrUrCrCrUmCrArGdT*dT)
The “Mean percent remaining mRNA transcript at siRNA concentration/in cell type 30 nM/HepG2” value of the first is higher: 92% for the first, 87% for the second.

Compared with “AD-9722: PCSK9 siRNA (sense rGrArArGrAmUrGrArGmUrGrGmCrGrAmCmCmUrGdT*dT; antisense mCrArGrGrUrCrGrCmCrArCrUmCrArUrCrUrUrCdT*dT)”, “AD-9724: PCSK9 siRNA (sense mCmCmUrGrGmUrGrGrArGrGmUrGmUrAmUmCmUmCdT*dT; antisense rGrArGrAmUrAmCrArCrCrUrCmCrArCmCrArGrGdT*dT)” is higher in “Mean percent remaining mRNA transcript at siRNA concentration/in cell type 30 nM/HepG2” value: 76% for the first, 127% for the second.

First: AD-9725: PCSK9 siRNA (sense mUmUmCmUrGrGrAmUrGrGmCrAmUmCmUrArGmCmCdT*dT; antisense rGrGrCmUrArGrArUrGrCmCrArUrCmCrArGrArAdT*dT)
Second: AD-9726: PCSK9 siRNA (sense rGmUmCrGmUrGmCmUrGrGmUmCrAmCmCrGmCmUrGdT*dT; antisense mCrArGrCrGrGrUrGrArCmCrArGmCrArCrGrArCdT*dT)
The “Mean percent remaining mRNA transcript at siRNA concentration/in cell type 30 nM/HepG2” value of the first is lower: 38% for the first, 95% for the second.

First: AD-9727: PCSK9 siRNA (sense rArGrGrGmUmCrAmUrGrGmUmCrAmCmCrGrAmCmUdT*dT; antisense rArGrUrCrGrGrUrGrArCmCrArUrGrArCrCrCrUdT*dT)
Second: AD-9728: PCSK9 siRNA (sense mCrArGmCrGrGmCmCrGrGrGrAmUrGmCmCrGrGmCdT*dT; antisense rGrCrCrGrGmCrArUrCrCrCrGrGrCrCrGrCrUrGdT*dT)
The “Mean percent remaining mRNA transcript at siRNA concentration/in cell type 30 nM/HepG2” value of the first is higher: 118% for the first, 94% for the second.

First: AD-9729: PCSK9 siRNA (sense mUmUmUmCmUrGrGrAmUrGrGmCrAmUmCmUrArGmCdT*dT; antisense rGrCmUrArGrArUrGrCmCrArUrCmCrArGrArArAdT*dT)
Second: AD-9730: PCSK9 siRNA (sense mCmUmCrArGmCmCrArAmCmCmCrGmCmUmCmCrAmCdT*dT; antisense rGrUrGrGrArGrCrGrGrGrUrUrGrGrCrUrGrArGdT*dT)
The “Mean percent remaining mRNA transcript at siRNA concentration/in cell type 30 nM/HepG2” value of the first is lower: 56% for the first, 85% for the second.

First: AD-9731: PCSK9 siRNA (sense mUrGrGmUrGrArArGrAmUrGrArGmUrGrGmCrGrAdT*dT; antisense rUrCrGrCmCrArCrUmCrArUrCrUrUmCrArCmCrAdT*dT)
Second: AD-9732: PCSK9 siRNA (sense mUmCrGmUrGmCmUrGrGmUmCrAmCmCrGmCmUrGmCdT*dT; antisense rGmCrArGrCrGrGrUrGrArCmCrArGmCrArCrGrAdT*dT)
The “Mean percent remaining mRNA transcript at siRNA concentration/in cell type 30 nM/HepG2” value of the first is lower: 31% for the first, 105% for the second.

First: AD-9733: PCSK9 siRNA (sense rGrGrArGmCmUrGrGmUrGmCmUrArGmCmCmUmUrGdT*dT; antisense mCrArArGrGrCmUrArGmCrArCmCrArGrCrUrCrCdT*dT)
Second: AD-9734: PCSK9 siRNA (sense mUrGmCmUrArGmCmCmUmUrGmCrGmUmUmCmCrGrAdT*dT; antisense rUrCrGrGrArArCrGmCrArArGrGrCmUrArGmCrAdT*dT)
The “Mean percent remaining mRNA transcript at siRNA concentration/in cell type 30 nM/HepG2” value of the first is lower: 78% for the first, 91% for the second.

First: AD-9735: PCSK9 siRNA (sense mCrAmCrGrGmUrAmCmCrGrGrGmCrGrGrAmUrGrAdT*dT; antisense rUmCrArUrCrCrGrCrCrCrGrGmUrArCrCrGrUrGdT*dT)
Second: AD-9737: PCSK9 siRNA (sense mUmCmCmUrArGrAmCrAmCmCrArGmCrAmUrAmCrAdT*dT; antisense rUrGmUrArUrGrCrUrGrGrUrGrUrCmUrArGrGrAdT*dT)
The “Mean percent remaining mRNA transcript at siRNA concentration/in cell type 30 nM/HepG2” value of the first is higher: 115% for the first, 68% for the second.

First: AD-9738: PCSK9 siRNA (sense rAmCmCrAmCmCrGrGrGrArArAmUmCrGrArGrGrGdT*dT; antisense rCrCrCrUrCrGrArUrUrUrCrCrCrGrGrUrGrGrUdT*dT)
Second: AD-9739: PCSK9 siRNA (sense mCrGrArGrGrGmCrArGrGrGmUmCrAmUrGrGmUmCdT*dT; antisense rGrArCmCrArUrGrArCrCrCrUrGrCrCrCrUrCrGdT*dT)
The “Mean percent remaining mRNA transcript at siRNA concentration/in cell type 30 nM/HepG2” value of the first is lower: 83% for the first, 109% for the second.

First: AD-9740: PCSK9 siRNA (sense rGrGmCrArAmCmUmUmCmCrGrGrGrAmCrGrAmUrGdT*dT; antisense mCrArUrCrGrUrCrCrCrGrGrArArGrUrUrGrCrCdT*dT)
Second: AD-9741: PCSK9 siRNA (sense mUmUmCmCrGrGrGrAmCrGrAmUrGmCmCmUrGmCmCdT*dT; antisense rGrGmCrArGrGmCrArUrCrGrUrCrCrCrGrGrArAdT*dT)
The “Mean percent remaining mRNA transcript at siRNA concentration/in cell type 30 nM/HepG2” value of the first is higher: 198% for the first, 130% for the second.

Compared with “AD-9742: PCSK9 siRNA (sense rArGmCrAmCmCmUrGmCmUmUmUrGmUrGmUmCrAmCdT*dT; antisense rGrUrGrAmCrAmCrArArArGmCrArGrGrUrGrCrUdT*dT)”, “AD-9743: PCSK9 siRNA (sense rAmUrGmCmUrGmUmCmUrGmCmCrGrArGmCmCrGrGdT*dT; antisense rCrCrGrGrCrUrCrGrGmCrArGrAmCrArGmCrArUdT*dT)” is lower in “Mean percent remaining mRNA transcript at siRNA concentration/in cell type 30 nM/HepG2” value: 127% for the first, 104% for the second.

First: AD-9744: PCSK9 siRNA (sense rGrArGmCrAmUrGrGrArAmUmCmCmCrGrGmCmCmCdT*dT; antisense rGrGrGrCrCrGrGrGrArUrUrCmCrArUrGrCrUrCdT*dT)
Second: AD-9745: PCSK9 siRNA (sense mUmCrArGrGrArGmCmCrGrGrGrAmCrGmUmCrArGdT*dT; antisense rCrUrGrArCrGrUrCrCrCrGrGrCrUrCrCrUrGrAdT*dT)
The “Mean percent remaining mRNA transcript at siRNA concentration/in cell type 30 nM/HepG2” value of the first is higher: 91% for the first, 56% for the second.

Going from “AD-9746: PCSK9 siRNA (sense mCrArGrGrArGmCmCrGrGrGrAmCrGmUmCrArGmCdT*dT; antisense rGrCrUrGrArCrGrUrCrCrCrGrGrCrUrCrCrUrGdT*dT)” to “AD-9747: PCSK9 siRNA (sense mUmCmUrGrGrAmUrGrGmCrAmUmCmUrArGmCmCrAdT*dT; antisense rUrGrGrCmUrArGrArUrGrCmCrArUrCmCrArGrAdT*dT)”, the “Mean percent remaining mRNA transcript at siRNA concentration/in cell type 30 nM/HepG2” value falls from 89% to 63%.

Going from “AD-9748: PCSK9 siRNA (sense mCmUrGmUmCmCmCmUmCmCmUmUrGrArGmCrAmCmCdT*dT; antisense rGrGrUrGrCrUmCrArArGrGrArGrGrGrAmCrArGdT*dT)” to “AD-9749: PCSK9 siRNA (sense rGmUmCrArGmCmUmCmCrArGrGmCrGrGmUmCmCmUdT*dT; antisense rArGrGrArCrCrGrCrCrUrGrGrArGrCrUrGrArCdT*dT)”, the “Mean percent remaining mRNA transcript at siRNA concentration/in cell type 30 nM/HepG2” value rises from 103% to 105%.

Going from “AD-9750: PCSK9 siRNA (sense mCrGmUmCrArGmCmUmCmCrArGrGmCrGrGmUmCmCdT*dT; antisense rGrGrArCrCrGrCrCrUrGrGrArGrCrUrGrArCrGdT*dT)” to “AD-9751: PCSK9 siRNA (sense mCmUrGrGmUrGrGrArGrGmUrGmUrAmUmCmUmCmCdT*dT; antisense rGrGrArGrAmUrAmCrArCrCrUrCmCrArCmCrArGdT*dT)”, the “Mean percent remaining mRNA transcript at siRNA concentration/in cell type 30 nM/HepG2” value falls from 96% to 60%.
